Results reported in patent US9586950B2 (MERCK SHARP & DOHME CORP., priority 2012, dated 2017).
Like-named read-outs stand apart in the source and are kept apart here.

Key:
human orexin-2 receptor [1] = target: T1, human orexin-2 receptor (Homo sapiens (Human), UniProt O43614); assay: radioligand binding assay, hOX2R BIND
Method: (§1) In a typical experiment the OX1 and OX2 receptor antagonistic activity of the compounds of the present invention was determined in accordance with the following experimental method. For intracellular calcium measurements, Chinese hamster ovary (CHO) cells expressing the rat orexin-1 receptor or the human orexin-2 receptor, are grown in Iscove's modified DMEM containing 2 mM L-glutamine, […], 1% hypoxanthine-thymidine supplement, 100 U/ml penicillin, 100 μg/ml streptomycin and 10% heat-inactivated fetal calf serum (FCS). The cells are seeded at 20,000 cells/well into Becton-Dickinson black 384-well clear bottom sterile plates coated with poly-D-lysine. All reagents were from GIBCO-Invitrogen Corp. The seeded plates are incubated overnight at 37° C. and 5% CO2. Ala-6,12 human orexin-A as the agonist is prepared as a 1 mM stock solution in 1% bovine serum albumin (BSA) and diluted in assay buffer (HBSS containing 20 mM HEPES, 0.1% BSA and 2.5 mM probenecid, pH7.4) for use in the assay at a final concentration of 70 pM. Test compounds are prepared as 10 mM stock solution in DMSO, then diluted in 384-well plates, first in DMSO, then assay buffer. On the day of the assay, cells are washed 3 times with 100 μl assay buffer and then incubated for 60 min (37° C., 5% CO2) in 60 μl assay buffer containing 1 μM Fluo-4AM ester, 0.02% pluronic acid, and 1% BSA. The dye loading solution is then aspirated and cells are washed 3 times with 100 μl assay buffer. 30 μl of that same buffer is left in each well. Within the Fluorescent Imaging Plate Reader (FLIPR, Molecular Devices), test compounds are added to the plate in a volume of 25 μl, incubated for 5 min and finally 25 μl of agonist is added. Fluorescence is measured for each well at 1 second intervals for 5 minutes and the height of each fluorescence peak is compared to the height of the fluorescence peak induced by 70 pM Ala-6,12 orexin-A with buffer in place of antagonist. […] Alternatively, compound potency can be assessed by a radioligand binding assay (described in Bergman et. al. Bioorg. Med. Chem. Lett. 2008, 18, 1425-1430) in which the inhibition constant (Ki) is determined in membranes prepared from CHO cells expressing either the OX1 or OX2 receptor. The intrinsic orexin receptor antagonist activity of a compound which may be used in the present invention may be determined by these assays.

human orexin-2 receptor [2] = target: T1, human orexin-2 receptor; assay: FLIPR Ca2+ Flux Assay, hOX2R FLIPR; assay type: cell-based; settings: CHO cells, 70 pM Ala-6,12 human orexin-A agonist
Method: as §1

[3] = target: T2, hOX1R (orexin-1 receptor) (Rattus norvegicus, UniProt P56718); assay: FLIPR Ca2+ Flux Assay, hOX1R FLIPR; assay type: cell-based; settings: CHO cells, 70 pM Ala-6,12 human orexin-A agonist
Method: as §1

[4] = target: T2, hOX1R (orexin-1 receptor); assay: radioligand binding assay, hOX1R BIND; settings: membranes from CHO cells expressing OX1 receptor; read-out: hOX1R BIND hKi
Method: In a typical experiment the OX1 and OX2 receptor antagonistic activity of the compounds of the present invention was determined in accordance with the following experimental method. For intracellular calcium measurements, Chinese hamster ovary (CHO) cells expressing the rat orexin-1 receptor or the human orexin-2 receptor, are grown in Iscove's modified DMEM containing 2 mM L-glutamine, […], 1% hypoxanthine-thymidine supplement, 100 U/ml penicillin, 100 μg/ml streptomycin and 10% heat-inactivated fetal calf serum (FCS). The cells are seeded at 20,000 cells/well into Becton-Dickinson black 384-well clear bottom sterile plates coated with poly-D-lysine. […] Within the Fluorescent Imaging Plate Reader (FLIPR, Molecular Devices), test compounds are added to the plate in a volume of 25 μl, incubated for 5 min and finally 25 μl of agonist is added. Fluorescence is measured for each well at 1 second intervals for 5 minutes and the height of each fluorescence peak is compared to the height of the fluorescence peak induced by 70 pM Ala-6,12 orexin-A with buffer in place of antagonist. […] Alternatively, compound potency can be assessed by a radioligand binding assay (described in Bergman et. al. Bioorg. Med. Chem. Lett. 2008, 18, 1425-1430) in which the inhibition constant (Ki) is determined in membranes prepared from CHO cells expressing either the OX1 or OX2 receptor. […]

[5] = membranes from CHO cells expressing OX2 receptor, read-out: hOX2R BIND hKi

T1 sequence (O43614 whole entry): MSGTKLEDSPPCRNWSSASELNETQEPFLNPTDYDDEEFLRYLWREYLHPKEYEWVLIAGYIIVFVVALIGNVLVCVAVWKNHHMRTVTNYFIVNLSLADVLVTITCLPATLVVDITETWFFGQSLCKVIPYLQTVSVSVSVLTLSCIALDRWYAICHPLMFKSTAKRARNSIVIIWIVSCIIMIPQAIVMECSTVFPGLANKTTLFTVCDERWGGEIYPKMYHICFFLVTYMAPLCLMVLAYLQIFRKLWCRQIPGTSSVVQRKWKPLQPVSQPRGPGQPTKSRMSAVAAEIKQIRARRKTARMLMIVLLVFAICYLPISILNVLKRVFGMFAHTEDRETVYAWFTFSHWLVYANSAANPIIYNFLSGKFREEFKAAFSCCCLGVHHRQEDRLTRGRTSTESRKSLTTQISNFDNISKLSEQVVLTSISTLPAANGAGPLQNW
T2 sequence (P56718 whole entry, looked up): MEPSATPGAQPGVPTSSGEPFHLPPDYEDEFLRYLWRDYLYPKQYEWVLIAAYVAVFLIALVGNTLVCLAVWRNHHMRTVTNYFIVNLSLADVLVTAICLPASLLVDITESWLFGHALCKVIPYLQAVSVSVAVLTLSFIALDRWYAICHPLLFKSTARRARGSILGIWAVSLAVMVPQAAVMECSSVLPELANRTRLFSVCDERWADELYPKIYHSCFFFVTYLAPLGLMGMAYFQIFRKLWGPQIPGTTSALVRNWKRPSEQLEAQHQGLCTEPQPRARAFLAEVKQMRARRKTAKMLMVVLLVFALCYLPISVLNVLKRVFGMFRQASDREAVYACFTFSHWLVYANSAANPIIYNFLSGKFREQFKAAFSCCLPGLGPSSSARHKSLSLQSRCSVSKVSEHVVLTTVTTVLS

## COC(=O)c1c(C#N)ccnc1O[C@@H]1CC[C@@H](C)N(C(=O)c2c(C)cccc2-n2nccn2)C1 [Example 19, methyl 4-cyano-2-{[(3R,6R)-6-methyl-1-{[2-methyl-6-(2H-1,2,3-triazol-2-yl)phenyl]carbonyl}piperidin-3-yl]oxy}pyridine-3-carboxylate]
Human orexin-2 receptor [1]; [5]
  Ki: 0.00026 µM
Human orexin-2 receptor [2]
  IC50: 0.0169 µM
[3]
  IC50: 0.208 µM

## COC(=O)c1c(C#N)ccnc1O[C@@H]1CCC(C)N(C(=O)c2ccccc2-c2ncccn2)C1 (stereo partly shown) [Example 20]
Human orexin-2 receptor [1]; [5]
  Ki: 0.00054 µM
[4]
  Ki: 0.0308 µM
Human orexin-2 receptor [2]
  IC50: 0.0238 µM
[3]
  IC50: 0.417 µM

## COC(=O)c1c(C#N)ccnc1O[C@@H]1CC[C@@H](C)N(C(=O)c2ccc(F)cc2-c2ncccn2)C1 [Example 22, methyl 4-cyano-2-({(3R,6R)-1-[(4-fluoro-2-pyrimidin-2-ylphenyl)carbonyl]-6-methylpiperidin-3-yl}oxy)pyridine-3-carboxylate]
Human orexin-2 receptor [1]; [5]
  Ki: 0.00068 µM
Human orexin-2 receptor [2]
  IC50: 0.0336 µM
[3]
  IC50: 0.711 µM

## COC(=O)c1c(C#N)ccnc1O[C@@H]1CC[C@@H](C)N(C(=O)c2cc(F)ccc2-c2ncccn2)C1 [Example 23, methyl 4-cyano-2-({(3R,6R)-1-[(5-fluoro-2-pyrimidin-2-ylphenyl)carbonyl]-6-methylpiperidin-3-yl}oxy)pyridine-3-carboxylate]
Human orexin-2 receptor [1]; [5]
  Ki: 0.00047 µM
Human orexin-2 receptor [2]
  IC50: 0.032 µM
[3]
  IC50: 0.417 µM

## COC(=O)c1c(C#N)ccnc1O[C@@H]1CC[C@@H](C)N(C(=O)c2ccccc2-n2ncnn2)C1 [Example 25]
Human orexin-2 receptor [1]
  Ki: 0.00076 µM
Human orexin-2 receptor [2]
  IC50: 0.007 µM
[3]
  IC50: 1.29 µM
